The nature of one data set: in vivo. On the set-up: species or system nude mice (BALB/c nu/nu). The conditions noted are these: mouse, in vivo; intravenous, continuous 5 days, nude mice; maximum dose at which no animal was dead within 2 weeks; read-out: Maximum tolerated dose. As for the experimental part:
(1) Measurement of maximum tolerated dose (MTD) of the spicamycin derivatives in nude mice
The spicamycin derivative was dissolved in dimethylsulfoxide (DMSO) and Cremophor EL® at the same volume as DMSO was added. Physiological saline was added so that the concentration of DMSO and Cremophor EL® was finally adjusted to 1%, respectively, and thus injection liquids of spicamycin derivative in a variety of concentrations were prepared. […] The maximum dose at which no animal was dead was defined as the MTD of the respective derivatives.

Data set [1] relates to human colon cancer (COL-1). The format is in vivo, mouse. The conditions noted are these: for TGIR (tumor growth inhibition rate, maximum) / minTx (relative tumor volume when reduced to the minimum): COL-1 s.c. in nude mice, at MTD; for TGIR (tumor growth inhibition rate, maximum): TGIR=(1-Tx/Cx)×100, maximum during about 3 weeks; for minTx (relative tumor volume when reduced to the minimum): minimum throughout the test period. The procedure: (2) Method for measuring the antitumor effect on human colon cancer (COL-1)
COL-1, a human colon cancer, was transplanted subcutaneously into nude mice. When the tumor had grown to a volume of about 100 mm^3, the nude mice were divided into groups of 5 animals so that the average tumor volumes of respective groups were equalized. The respective spicamycin derivatives were administered to test groups at their MTDs, while physiological saline (solvent) containing 1% DMSO and 1% Cremophor EL® was administered to the control group. […] RV is expressed as RV =Vn/Vo where Vn is the tumor volume on day n and Vo is the initial tumor volume at the time treatment was commenced.

[2] abbreviates: /minimum effective dose (effective: TGIR≥50).

Read-outs that look alike come from different tables or passages of the source.

On to `O=C(CCCCCCCCCCCCCF)NCC(=O)N[C@@H]1[C@@H](O)[C@@H](O)[C@@H](Nc2ncnc3[nH]cnc23)O[C@H]1C(O)CO` (some centres unmarked) [SPK279, 6-[4,-N-(N,-14-fluorotetradecanoylglycyl)spicaminyl-amino]purine], for which, in “in vivo”, the MTD at 336 h stood at 6 mg/kg/day. In data set [1], the “TGIR (tumor growth inhibition rate, maximum)” value is on record as 93 and the “minTx (relative tumor volume when reduced to the minimum)” value worked out at 0.25. The compound also returned a Therapeutic index in data set [1] (mouse, in vivo) of 8.

For the compound `O=C(CCCCCCCCCCCCCCF)NCC(=O)NC1C(O)C(O)C(Nc2ncnc3[nH]cnc23)OC1C(O)CO` (centres unmarked) [SPK247, 6-[4,-N-(N'-15-fluoropentadecanoylglycyl)spicaminyl-amino]purine], the MTD at 336 h in “in vivo” was determined as 6 mg/kg/day. Besides, in data set [1], the “TGIR (tumor growth inhibition rate, maximum)” value is 96 and the “minTx (relative tumor volume when reduced to the minimum)” value is reported as 0.16. Further, the Therapeutic index in data set [1] (mouse, in vivo) was found to be 8.

In the case of `CCCCCCCCCCCC(=O)NCC(=O)NC1C(O)C(O)C(Nc2ncnc3[nH]cnc23)OC1C(O)CO` (centres unmarked) [SPM8, reference compound], in “in vivo”, the MTD at 336 h was 10.4 mg/kg/day. In data set [1], the “TGIR (tumor growth inhibition rate, maximum)” value is reported as 94 and the “minTx (relative tumor volume when reduced to the minimum)” value is recorded as 0.19. Moreover, the Therapeutic index in data set [1] (mouse, in vivo) turned out to be 4.

Turning to `CCCCCCCCCCC(F)C(=O)NCC(=O)NC1C(O)C(O)C(Nc2ncnc3[nH]cnc23)OC1C(O)CO` (centres unmarked) [SPK159, 6-[4'-N-(N'-2-fluorododecanoylglycyl)spicaminyl-amino]purine], the MTD at 336 h in “in vivo” stood at 24 mg/kg/day. Further, the “TGIR (tumor growth inhibition rate, maximum)” value in data set [1] came out at 96. In addition, the Therapeutic index in data set [1] (mouse, in vivo) is listed as 4.

Take `O=C(CCCCCCCCCCBr)NCC(=O)N[C@@H]1[C@@H](O)[C@@H](O)[C@@H](Nc2ncnc3[nH]cnc23)O[C@H]1C(O)CO` (some centres unmarked) [SPK64, 6-[4'-N-(N'-11-bromoundecanoylglycyl)spicaminyl-amino]purine]: in “in vivo”, the MTD at 336 h was 18 mg/kg/day. For the same compound, the “TGIR (tumor growth inhibition rate, maximum)” value in data set [1] is 95. Besides, the Therapeutic index in data set [1] (mouse, in vivo) is 4.

On to `CCCCCCCCCCC[C@@H](O)CC(=O)NCC(=O)NC1C(O)C(O)C(Nc2ncnc3[nH]cnc23)OC1C(O)CO` (stereo partly drawn) [SPK270, 6-[4'-N-(N'-(R)-3-hydroxytetradecanoylglycyl)spicaminyl-amino]purine], for which the MTD at 336 h in the data set “in vivo” came to 12 mg/kg/day. In data set [1], the “TGIR (tumor growth inhibition rate, maximum)” value is 94 and the “minTx (relative tumor volume when reduced to the minimum)” value is on record as 0.21. Moreover, the Therapeutic index in data set [1] (mouse, in vivo) was found to be 4.

For the compound `CCCCCCCCCCCCCCC(F)C(=O)NCC(=O)NC1C(O)C(O)C(Nc2ncnc3[nH]cnc23)OC1C(O)CO` (centres unmarked) [SPK233, 6-[4'-N-(N'-2-fluorohexadecanoylglycyl)spicaminyl-amino]purine], the MTD at 336 h in the data set “in vivo” worked out at 2.7 mg/kg/day. In data set [1] (setting [2]), this compound registered a Therapeutic index of 4. Further, in data set [1], the “TGIR (tumor growth inhibition rate, maximum)” value is given as 96 and the “minTx (relative tumor volume when reduced to the minimum)” value turned out to be 0.13.

On to `O=C(CCCCCCCCCCCCCCl)NCC(=O)N[C@@H]1[C@@H](O)[C@@H](O)[C@@H](Nc2ncnc3[nH]cnc23)O[C@H]1C(O)CO` (some centres unmarked) [SPK280, 6-[4'-N-(N'-14-chlorotetradecanoylglycyl)spicaminyl-amino]purine], for which the MTD at 336 h in “in vivo” was found to be 9 mg/kg/day. Further, in data set [1], the “TGIR (tumor growth inhibition rate, maximum)” value amounted to 94 and the “minTx (relative tumor volume when reduced to the minimum)” value was determined as 0.19. Besides, the Therapeutic index in data set [1] (mouse, in vivo) is given as 8.

For `O=C(CCCCCCCCCCCCl)NCC(=O)N[C@@H]1[C@@H](O)[C@@H](O)[C@@H](Nc2ncnc3[nH]cnc23)O[C@H]1C(O)CO` (some centres unmarked) [SPK132, 6-[4'-N-(N'-12-chlorododecanoylglycyl)spicaminyl-amino]purine], the MTD at 336 h in the data set “in vivo” stood at 12 mg/kg/day. In addition, in data set [1], the “TGIR (tumor growth inhibition rate, maximum)” value is 98 and the “minTx (relative tumor volume when reduced to the minimum)” value is 0.08. In addition, the Therapeutic index in data set [1] (mouse, in vivo) stood at 4.

Turning to `CCCCCC/C=C\CCCCCCCC(=O)NCC(=O)N[C@@H]1[C@@H](O)[C@@H](O)[C@@H](Nc2ncnc3[nH]cnc23)O[C@H]1C(O)CO` (stereo partly drawn) [SPK148, 6-[4,-N-(N'-cis-9-hexadecenoylglycyl)spicaminyl-amino]purine], the MTD at 336 h in “in vivo” is 3.4 mg/kg/day. The Therapeutic index in data set [1] (setting [2]) is on record as 4. Further, in data set [1], the “TGIR (tumor growth inhibition rate, maximum)” value is on record as 94 and the “minTx (relative tumor volume when reduced to the minimum)” value is on record as 0.21.

`O=C(CCCCCCCCCCCCCl)NCC(=O)N[C@@H]1[C@@H](O)[C@@H](O)[C@@H](Nc2ncnc3[nH]cnc23)O[C@H]1C(O)CO` (some centres unmarked) [SPK278, 6-[4'-N-(N'-13-chlorotridecanoylglycyl)spicaminyl-amino]purine]: in the data set “in vivo”, the MTD at 336 h came out at 12 mg/kg/day. Also, in data set [1], the “TGIR (tumor growth inhibition rate, maximum)” value is on record as 92 and the “minTx (relative tumor volume when reduced to the minimum)” value is on record as 0.21. Moreover, the Therapeutic index in data set [1] (mouse, in vivo) is reported as 8.

In the case of `N#CCCCCCCCCCCCCCCCC(=O)NCC(=O)NC1C(O)C(O)C(Nc2ncnc3[nH]cnc23)OC1C(O)CO` (centres unmarked) [SPK177, 6-[4'-N-(N'-16-cyanohexadecanoylglycyl)-spicaminyl-amino]purine], the MTD at 336 h in “in vivo” was 13.5 mg/kg/day. Moreover, in data set [1], the “TGIR (tumor growth inhibition rate, maximum)” value came out at 99. In data set [1] (mouse, in vivo), this compound had a Therapeutic index of 4.

Take `CCCCS(=O)(=O)OCCCCCCCCCCCC(=O)NCC(=O)NC1C(O)C(O)C(Nc2ncnc3[nH]cnc23)OC1C(O)CO` (centres unmarked) [SPK232, 6-[4'-N-(N'-12-butanesulfonyloxydodecanoylglycyl)spicaminyl-amino]purine]: the MTD at 336 h in “in vivo” came out at 24 mg/kg/day. Also, the “TGIR (tumor growth inhibition rate, maximum)” value in data set [1] was determined as 96. The Therapeutic index in data set [1] (mouse, in vivo) is on record as 4.

As for `CCCCCCC/C=C/C=C/C(=O)NCC(=O)N[C@@H]1[C@@H](O)[C@@H](O)[C@@H](Nc2ncnc3[nH]cnc23)O[C@H]1C(O)CO` (stereo partly drawn) [SPK282, 6-[4'-N-(N'-trans,trans-2,4-dodecadienoylglycyl)spicaminyl-amino]purine], the MTD at 336 h in the data set “in vivo” turned out to be 36 mg/kg/day. In data set [1], the “TGIR (tumor growth inhibition rate, maximum)” value was found to be 99 and the “minTx (relative tumor volume when reduced to the minimum)” value was 0.07. Besides, the Therapeutic index in data set [1] (mouse, in vivo) was 16.

Regarding `CC(C)CCCCCCCCCCC(=O)NCC(=O)N[C@@H]1[C@@H](O)[C@@H](O)[C@@H](Nc2ncnc3[nH]cnc23)O[C@H]1C(O)CO` (some centres unmarked) [SPK136, 6-[4'-N-(N'-12-methyltridecanoylglycyl)spicaminyl-amino]purine], the MTD at 336 h in the data set “in vivo” was 2 mg/kg/day. Further, the Therapeutic index in data set [1] (setting [2]) amounted to 4. Besides, in data set [1], the “TGIR (tumor growth inhibition rate, maximum)” value stood at 84.

Consider `O=C(CCCCCCCCC#Cc1ccoc1)NCC(=O)NC1C(O)C(O)C(Nc2ncnc3[nH]cnc23)OC1C(O)CO` (centres unmarked) [SPK266, 6-{4'-N-[N'-11-(3'-furyl)-10-undecynoylglycyl]spicamynyl-amino}purine], for which the MTD at 336 h in the data set “in vivo” is 12 mg/kg/day. Moreover, in data set [1], the “TGIR (tumor growth inhibition rate, maximum)” value is recorded as 97 and the “minTx (relative tumor volume when reduced to the minimum)” value is on record as 0.18. This compound had a Therapeutic index in data set [1] (mouse, in vivo) of 8.

`CC(C)CCCCCCCCCC(=O)NCC(=O)N[C@@H]1[C@@H](O)[C@@H](O)[C@@H](Nc2ncnc3[nH]cnc23)O[C@H]1C(O)CO` (some centres unmarked) [SPK251, 6-[4'-N-(N'-11-methyldodecanoylglycyl)spicaminyl-amino]purine]: in the data set “in vivo”, the MTD at 336 h was determined as 6 mg/kg/day. Further, the “TGIR (tumor growth inhibition rate, maximum)” value in data set [1] came out at 97. This compound yielded a Therapeutic index in data set [1] (mouse, in vivo) of 8.

Consider `CCCCCCCCCCCCCC[C@H](O)C(=O)NCC(=O)NC1C(O)C(O)C(Nc2ncnc3[nH]cnc23)OC1C(O)CO` (stereo partly drawn) [SPK271, 6-[4'-N-(N'-(S)-2-hydroxyhexadecanoylglycyl)spicaminyl-amino]purine], for which the MTD at 336 h in the data set “in vivo” worked out at 2 mg/kg/day. In data set [1] (setting [2]), this compound came in with a Therapeutic index of 8. Further, in data set [1], the “TGIR (tumor growth inhibition rate, maximum)” value came out at 99 and the “minTx (relative tumor volume when reduced to the minimum)” value is 0.09.

On to `CCCCCCCCCCCCC(=O)NCC(=O)N[C@@H]1[C@@H](O)[C@@H](O)[C@@H](Nc2ncnc3[nH]cnc23)O[C@H]1C(O)CO` (some centres unmarked) [SPM9, 6-[4 '-N-(N'-tridecanoylglycyl)spicaminyl-amino]purine], for which the MTD at 336 h in “in vivo” is 3.4 mg/kg/day. In data set [1], the “TGIR (tumor growth inhibition rate, maximum)” value was determined as 99 and the “minTx (relative tumor volume when reduced to the minimum)” value was found to be 0.05. The compound further gave a Therapeutic index in data set [1] (mouse, in vivo) of 6.

Turning to `CCCCCCCCCCC[C@H](O)CC(=O)NCC(=O)NC1C(O)C(O)C(Nc2ncnc3[nH]cnc23)OC1C(O)CO` (single isomer, unassigned) [SPK274, 6-[4'-N-(N'-(s)-3-hydroxytetradecanoylglydyl)spicaminyl-amino]purine], in “in vivo”, the MTD at 336 h was 24 mg/kg/day. In data set [1], the “TGIR (tumor growth inhibition rate, maximum)” value is on record as 92 and the “minTx (relative tumor volume when reduced to the minimum)” value was 0.16. Moreover, in data set [1] (mouse, in vivo), the Therapeutic index is on record as 4.

Consider `O=C(CCCCCCCCCCI)NCC(=O)NC1C(O)C(O)C(Nc2ncnc3[nH]cnc23)OC1C(O)CO` (centres unmarked) [SPK165, 6-[4'-N-(N'-11-iodoundecanoylglycyl)spicaminyl-amino]purine], for which the MTD at 336 h in “in vivo” was 24 mg/kg/day. For the same compound, the “TGIR (tumor growth inhibition rate, maximum)” value in data set [1] was found to be 86.

As for `O=C(CCCCCCCCC#Cc1cccs1)NCC(=O)NC1C(O)C(O)C(Nc2ncnc3[nH]cnc23)OC1C(O)CO` (centres unmarked) [SPK262, 6-{4'-N-[N'-11-(2'-thienyl)-10-undecynoylglycyl]spicaminyl-amino}purine], the MTD at 336 h in “in vivo” stood at 8 mg/kg/day. In data set [1], the “TGIR (tumor growth inhibition rate, maximum)” value is 99 and the “minTx (relative tumor volume when reduced to the minimum)” value was determined as 0.03. For the same compound, the Therapeutic index in data set [1] (mouse, in vivo) is on record as 4.

For the origin of these results see patent US5461036A, “Spicamycin derivatives and their use as anticancer agents” (priority 1991, dated 1995).
